Active and inactive are the calls of the source. The rule behind the calls is not given here.
How the values were obtained:
[1] = target: T1, Amine oxidase [flavin-containing] A (Homo sapiens, UniProt P21397); test: Inhibition of recombinant human MAO-A expressed in baculovirus infected insect cell microsomes using kynuramine as substrate measured after 30 mins by fluorescence based assay
T1 sequence (P21397 whole entry): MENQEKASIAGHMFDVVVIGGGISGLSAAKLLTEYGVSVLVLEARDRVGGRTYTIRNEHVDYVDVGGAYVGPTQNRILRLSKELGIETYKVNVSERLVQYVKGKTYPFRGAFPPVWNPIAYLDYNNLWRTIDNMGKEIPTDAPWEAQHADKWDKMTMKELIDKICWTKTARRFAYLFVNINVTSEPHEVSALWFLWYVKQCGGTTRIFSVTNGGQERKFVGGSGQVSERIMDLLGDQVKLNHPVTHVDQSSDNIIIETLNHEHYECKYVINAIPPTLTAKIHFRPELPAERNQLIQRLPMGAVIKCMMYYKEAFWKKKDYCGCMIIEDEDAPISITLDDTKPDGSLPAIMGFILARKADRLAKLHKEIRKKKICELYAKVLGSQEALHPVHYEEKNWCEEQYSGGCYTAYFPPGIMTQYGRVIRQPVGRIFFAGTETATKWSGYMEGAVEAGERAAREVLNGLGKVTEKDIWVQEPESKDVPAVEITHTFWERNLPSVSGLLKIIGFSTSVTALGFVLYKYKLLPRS

[2] = target: T2, Amine oxidase [flavin-containing] B (Homo sapiens, UniProt P27338); test: Inhibition of recombinant human MAO-B expressed in baculovirus infected insect cell microsomes using kynuramine as substrate measured after 30 mins by fluorescence based assay
T2 sequence (P27338 whole entry): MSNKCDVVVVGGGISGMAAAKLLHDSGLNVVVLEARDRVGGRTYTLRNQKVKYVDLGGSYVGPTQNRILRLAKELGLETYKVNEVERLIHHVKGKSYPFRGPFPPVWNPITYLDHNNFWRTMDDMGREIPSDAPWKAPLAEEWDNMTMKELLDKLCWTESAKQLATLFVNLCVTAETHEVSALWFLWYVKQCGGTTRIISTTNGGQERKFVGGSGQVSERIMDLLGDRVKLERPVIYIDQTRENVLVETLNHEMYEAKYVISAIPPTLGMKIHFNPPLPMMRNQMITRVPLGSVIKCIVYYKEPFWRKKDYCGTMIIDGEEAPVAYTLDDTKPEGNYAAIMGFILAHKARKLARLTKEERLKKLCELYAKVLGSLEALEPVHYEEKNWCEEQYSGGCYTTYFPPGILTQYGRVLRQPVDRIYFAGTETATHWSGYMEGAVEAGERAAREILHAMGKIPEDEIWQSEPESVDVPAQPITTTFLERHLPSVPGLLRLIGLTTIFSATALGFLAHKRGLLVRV

[3] = Drug metabolism in PBS buffer assessed as nitric oxide release at 150 uM in presence of cysteine by Griess reagent based UV-Visible spectrophotometric method; details: TDE = time-dependent effect
Acetylcholinesterase = Acetylcholinesterase (Homo sapiens, UniProt P22303); test: Inhibition of human recombinant AChE using acetylthiocholine iodide as substrate by Ellman's method
Chain of Acetylcholinesterase (P22303 whole entry): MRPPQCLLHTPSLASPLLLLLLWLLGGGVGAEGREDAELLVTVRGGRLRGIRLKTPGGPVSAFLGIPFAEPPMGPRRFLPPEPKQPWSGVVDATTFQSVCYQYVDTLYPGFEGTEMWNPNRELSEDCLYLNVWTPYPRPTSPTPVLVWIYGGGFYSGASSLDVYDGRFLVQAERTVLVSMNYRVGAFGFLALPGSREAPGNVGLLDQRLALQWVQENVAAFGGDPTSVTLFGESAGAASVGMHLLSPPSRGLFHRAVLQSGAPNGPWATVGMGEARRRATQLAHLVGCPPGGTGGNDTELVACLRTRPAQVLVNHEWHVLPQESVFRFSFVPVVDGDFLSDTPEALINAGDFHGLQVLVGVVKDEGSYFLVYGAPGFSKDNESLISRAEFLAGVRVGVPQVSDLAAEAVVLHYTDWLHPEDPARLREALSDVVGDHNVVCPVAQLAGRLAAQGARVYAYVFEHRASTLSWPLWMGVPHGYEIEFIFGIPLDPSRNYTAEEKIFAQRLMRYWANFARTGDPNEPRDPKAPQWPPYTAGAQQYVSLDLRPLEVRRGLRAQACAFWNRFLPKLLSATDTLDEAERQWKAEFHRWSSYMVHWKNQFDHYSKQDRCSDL

Cholinesterase = Cholinesterase (Homo sapiens, UniProt P06276); test: Inhibition of human serum BuChE using butyrylthiocholine iodide as substrate by Ellman's method
Chain of Cholinesterase (P06276 whole entry): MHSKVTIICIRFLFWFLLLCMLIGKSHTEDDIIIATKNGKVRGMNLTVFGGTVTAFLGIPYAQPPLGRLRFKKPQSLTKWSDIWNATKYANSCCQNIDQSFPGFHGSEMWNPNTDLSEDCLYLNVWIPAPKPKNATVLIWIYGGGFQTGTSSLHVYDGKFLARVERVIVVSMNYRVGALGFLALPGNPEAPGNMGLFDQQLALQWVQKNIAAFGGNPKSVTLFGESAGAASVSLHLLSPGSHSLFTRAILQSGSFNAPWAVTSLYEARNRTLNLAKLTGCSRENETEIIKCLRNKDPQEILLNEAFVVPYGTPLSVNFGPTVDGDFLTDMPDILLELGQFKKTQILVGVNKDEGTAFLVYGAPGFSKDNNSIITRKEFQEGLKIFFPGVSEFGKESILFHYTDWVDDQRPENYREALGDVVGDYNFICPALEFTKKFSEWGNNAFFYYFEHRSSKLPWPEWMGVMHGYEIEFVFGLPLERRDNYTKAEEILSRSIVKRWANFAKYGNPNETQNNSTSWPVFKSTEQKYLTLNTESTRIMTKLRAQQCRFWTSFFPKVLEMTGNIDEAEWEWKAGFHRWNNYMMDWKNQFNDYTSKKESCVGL

[4] = Drug metabolism in pH 7.4 PBS buffer assessed as 7-({1-[3-(3-Hydroxypropoxy)benzyl]piperidin-4-yl}methoxy)-3,4-dimethyl-2H-chromen-2-one formation at 100 uM up to 30 hrs by RP-HPLC method
[5] = Half life in human serum at 100 uM by RP-HPLC method; assay type: ADME, cell-free
[6] = Drug metabolism in pH 7.4 PBS buffer assessed as 7-({1-[3-(3-Hydroxypropoxy)benzyl]piperidin-4-yl}methoxy)-3,4-dimethyl-2H-chromen-2-one formation at 100 uM up to 30 hrs in presence of cysteine by RP-HPLC method
[7] = Drug metabolism in pH 7.4 PBS buffer assessed as 7-({1-[3-(3-Hydroxypropoxy)benzyl]piperidin-4-yl}methoxy)-3,4-dimethyl-2H-chromen-2-one formation at 100 uM up to 30 hrs in presence of glutathione by RP-HPLC method
[8] = Drug metabolism in pH 7.4 PBS buffer at 100 uM after 24 hrs in presence of cysteine by RP-HPLC method
[9] = Drug metabolism in pH 7.4 PBS buffer at 100 uM after 24 hrs in presence of glutathione by RP-HPLC method
[10] = Drug metabolism in pH 7.4 PBS buffer at 100 uM after 24 hrs by RP-HPLC method
[11] = target: T1, Amine oxidase [flavin-containing] A; test: Inhibition of recombinant human MAO-A expressed in baculovirus infected insect cell microsomes at 10 uM using kynuramine as substrate measured after 30 mins by fluorescence based assay relative to control; details: 0.5 h
[12] = target: T2, Amine oxidase [flavin-containing] B; test: Inhibition of recombinant human MAO-B expressed in baculovirus infected insect cell microsomes at 10 uM using kynuramine as substrate measured after 30 mins by fluorescence based assay relative to control; details: 0.5 h
[13] = target: T2, Amine oxidase [flavin-containing] B; test: Inhibition of recombinant human MAO-B expressed in baculovirus infected insect cell microsomes at 10 uM using kynuramine as substrate measured after 30 mins by spectrophotometric assay relative to control; details: 0.5 h
[14] = target: Acetylcholinesterase (Electrophorus electricus) (UniProt O42275); test: Inhibition of electric eel AChE at 10 uM using acetylthiocholine iodide as substrate by Ellman's method relative to control
Chain of Acetylcholinesterase (Electrophorus electricus) (O42275 24-633 limits assumed): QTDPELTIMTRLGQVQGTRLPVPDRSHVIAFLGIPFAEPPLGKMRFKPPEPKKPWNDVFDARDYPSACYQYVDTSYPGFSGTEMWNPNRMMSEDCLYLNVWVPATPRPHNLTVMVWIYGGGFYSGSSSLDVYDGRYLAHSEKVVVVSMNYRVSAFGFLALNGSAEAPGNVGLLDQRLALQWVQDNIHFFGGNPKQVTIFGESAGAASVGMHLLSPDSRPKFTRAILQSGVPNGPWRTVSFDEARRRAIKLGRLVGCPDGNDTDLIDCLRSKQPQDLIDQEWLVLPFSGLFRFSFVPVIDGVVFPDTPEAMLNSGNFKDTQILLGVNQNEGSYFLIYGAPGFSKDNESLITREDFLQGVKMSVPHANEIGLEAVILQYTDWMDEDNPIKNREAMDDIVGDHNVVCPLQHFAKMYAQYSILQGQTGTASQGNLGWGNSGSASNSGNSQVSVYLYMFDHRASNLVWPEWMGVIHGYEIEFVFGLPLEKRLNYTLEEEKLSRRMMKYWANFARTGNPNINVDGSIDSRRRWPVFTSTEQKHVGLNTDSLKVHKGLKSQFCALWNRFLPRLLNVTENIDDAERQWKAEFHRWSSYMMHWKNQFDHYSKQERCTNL

[15] = target: Cholinesterase (Equus caballus) (UniProt P81908); test: Inhibition of equine serum BuChE at 10 uM using butyrylthiocholine iodide as substrate by Ellman's method relative to control
Chain of Cholinesterase (Equus caballus) (P81908 whole entry): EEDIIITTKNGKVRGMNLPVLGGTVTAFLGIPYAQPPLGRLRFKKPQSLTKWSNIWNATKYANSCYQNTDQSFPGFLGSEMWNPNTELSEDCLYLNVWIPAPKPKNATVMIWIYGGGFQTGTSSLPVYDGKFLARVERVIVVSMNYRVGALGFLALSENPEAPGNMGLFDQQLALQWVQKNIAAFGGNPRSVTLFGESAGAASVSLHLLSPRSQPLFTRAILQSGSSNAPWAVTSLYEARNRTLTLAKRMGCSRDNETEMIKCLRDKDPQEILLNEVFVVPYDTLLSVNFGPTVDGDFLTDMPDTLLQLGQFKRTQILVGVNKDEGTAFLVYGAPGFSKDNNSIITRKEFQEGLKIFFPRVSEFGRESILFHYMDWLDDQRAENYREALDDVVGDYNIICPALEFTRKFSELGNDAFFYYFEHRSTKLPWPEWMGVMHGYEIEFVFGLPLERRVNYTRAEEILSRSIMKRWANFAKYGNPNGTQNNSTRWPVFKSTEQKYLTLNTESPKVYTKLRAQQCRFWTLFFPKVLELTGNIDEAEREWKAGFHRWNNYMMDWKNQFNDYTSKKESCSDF

SH-SY5Y = test: Neuroprotection against rotenone/H2O2-induced cell death in human SH-SY5Y cells assessed as increase in cell viability at 0.1 to […] preincubated for 24 hrs followed by rotenone/H2O2 addition measured after 24 hrs by MTT assay; assay type: functional, cell-based

Cc1c(C)c2ccc(OCC3CCN(Cc4cccc(OCCCO[N+](=O)[O-])c4)CC3)cc2oc1=O
IC50 [1]: 1200 nM | IC50 [2]: 550 nM | Drug metabolism [3]: Tde | IC50 (Acetylcholinesterase): 480 nM | IC50 (Cholinesterase): 800 nM | Drug metabolism [4]: Metabolite detected | half-life at 100 µM [5]: 19.1 days | Drug metabolism [6]: Metabolite not detected | Drug metabolism [7]: Metabolite not detected | Drug metabolism [8]: > 50% | Drug metabolism [9]: > 50% | Drug metabolism [10]: > 50%

O=c1ccc2ccc(OCC3CCN(CCCO)CC3)cc2o1
inhibition at 10 µM [11]: 26% | inhibition at 10 µM [12]: 48% | inhibition at 10 µM [13]: 39% | inhibition [14]: 38% | inhibition [15]: 26%

COc1cc2c(cc1OC)C(=O)C(CC1CCN(Cc3ccccc3)CC1)C2 (stereo not drawn)
Activity (SH-SY5Y): Active

Source: ChEMBL document CHEMBL4325863, “Investigating alkyl nitrates as nitric oxide releasing precursors of multitarget acetylcholinesterase-monoamine oxidase B inhibitors” (Eur J Med Chem, 2019)
